These results are taken from US20050209244A1, “N{5-[4-(4-methyl-piperazino-methyl)-benzoylamido]-2-methylphenyl}-4-(3-pyridyl)-2-pyrimidine-amine coated stents” (priority 2002, published 2005).

One test concerns the target Jak-2 (Homo sapiens, UniProt O60674). The following applies: cited from earlier work.
For test [1], the target named is receptor for stem cell factor (Homo sapiens, UniProt P10721). The note with it: cited from earlier work.
The target of the next test is Flt-1 (Homo sapiens, UniProt P17948). The note with it: cited from earlier work.
Test [2] deals with neointimal lesion formation. As to the kind of experiment: 28 day rat carotid artery balloon injury model. Type of test: in vivo. The note with it: for percent inhibition of neointimal lesion formation: 28 days post-balloon injury. As to the method:
Compounds of formula I are tested in the following rat model.
Rats are dosed orally with placebo or a compound of formula 1. Daily dosing starts 3 days prior to surgery and continues for 31 days. Rat carotid arteries are balloon injured using a method described by Clowes et al., Lab. Invest. 1983;49;208-215. Following sacrifice at 28 days post-balloon Injury, carotid arteries are removed and processed for histologic and morphometric evaluation.

The subject of test [3] is platelet-derived growth factor (PDGF) receptor. The note with it: in vitro; cited from earlier work.
Another test concerns the target Tek (Homo sapiens, UniProt Q02763). The note with it: cited from earlier work.
Another test has as its target c-Met (Homo sapiens, UniProt P08581). The following applies: cited from earlier work.
The target in another test is α-PDGF receptor (Homo sapiens, UniProt P16234). The note with it: cited from earlier work.
For the next test, the target named is T1, Flt-3 (Homo sapiens, UniProt P36888).
T1 sequence (P36888 27-993): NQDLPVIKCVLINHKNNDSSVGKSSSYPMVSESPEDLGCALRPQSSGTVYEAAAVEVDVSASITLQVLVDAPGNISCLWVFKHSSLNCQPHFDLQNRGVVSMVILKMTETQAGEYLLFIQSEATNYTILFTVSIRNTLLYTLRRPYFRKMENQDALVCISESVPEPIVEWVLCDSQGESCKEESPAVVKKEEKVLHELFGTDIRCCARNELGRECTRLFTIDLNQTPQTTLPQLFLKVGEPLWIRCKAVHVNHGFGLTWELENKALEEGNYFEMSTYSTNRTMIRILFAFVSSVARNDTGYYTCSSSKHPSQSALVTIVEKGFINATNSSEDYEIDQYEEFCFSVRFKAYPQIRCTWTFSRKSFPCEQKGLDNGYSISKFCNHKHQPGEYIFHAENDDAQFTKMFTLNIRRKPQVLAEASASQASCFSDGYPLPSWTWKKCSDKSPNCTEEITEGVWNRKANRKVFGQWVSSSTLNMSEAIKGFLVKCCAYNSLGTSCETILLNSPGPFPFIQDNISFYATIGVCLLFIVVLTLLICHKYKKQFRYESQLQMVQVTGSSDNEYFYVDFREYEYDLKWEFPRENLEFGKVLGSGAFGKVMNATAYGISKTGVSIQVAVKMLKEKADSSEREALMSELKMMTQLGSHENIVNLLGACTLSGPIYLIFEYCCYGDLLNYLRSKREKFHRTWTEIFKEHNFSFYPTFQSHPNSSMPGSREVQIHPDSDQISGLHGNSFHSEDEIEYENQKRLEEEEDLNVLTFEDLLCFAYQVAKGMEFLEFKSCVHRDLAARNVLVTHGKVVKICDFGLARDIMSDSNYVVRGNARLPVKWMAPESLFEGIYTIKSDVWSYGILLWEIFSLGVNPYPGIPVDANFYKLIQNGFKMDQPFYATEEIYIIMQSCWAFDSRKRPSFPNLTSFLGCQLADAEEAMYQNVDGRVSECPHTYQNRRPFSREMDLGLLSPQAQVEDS
The note with it: cited from earlier work.

For the next test, the target named is β-PDGF receptor (Homo sapiens, UniProt P09619). The note with it: cited from earlier work.
The target in another test is Kdr (Homo sapiens, UniProt P35968). The note with it: cited from earlier work.
For test [4], the system named is restenotic lesion formation. As to the kind of experiment: Rabbit iliac stent model, restenosis at 28 days. Type of test: in vivo, New Zealand White rabbit. As to the method: A combined angioplasty and stenting procedure is performed in New Zealand White rabbit iliac arteries. Iliac artery balloon injury is performed by inflating a 3.0×9.0 mm angioplasty balloon in the mid-portion of the artery followed by “pull-back” of the catheter for 1 balloon length. Balloon injury is repeated 2 times, and a 3.0×12 mm stent is deployed at 6 atm for 30 seconds in the iliac artery. Balloon injury and stent placement is then performed on the contralateral iliac artery in the same manner. A post-stent deployment angiogram is performed. All animals receive oral aspirin 40 mg/day daily as anti-platelet therapy and are fed standard low-cholesterol rabbit chow. Twenty-eight days after stenting, animals are anesthetized and euthanized and the arterial tree is perfused at 100 mmHg with lactated Ringer's for several minutes, then perfused with 10% formalin at 100 mmHg for 15 minutes. The vascular section between the distal aorta and the proximal femoral arteries is excised and cleaned of periadventitial tissue. The stented section of artery is embedded in plastic and sections are taken from the proximal, middle, and distal portions of each stent. All sections are stained with hematoxylin-eosin and Movat pentachrome stains. Computerized planimetry is performed to determine the area of the internal elastic lamina (IEL), external elastic lamina (EEL) and lumen. The neointima and neointimal thickness is measured both at and between the stent struts. The vessel area is measured as the area within the EEL. Data are expressed as mean±SEM. Statistical analysis of the histologic data is accomplished using analysis of variance (ANOVA) due to the fact that two stented arteries are measured per animal with a mean generated per animal. A P<0.05 is considered statistically significant.
COMPOUND is administered orally by gavage at 30 mg/kg once daily from 3 days prior to stenting until day 27 post-stenting. […] There is extensive neointimal formation in placebo-treated animals at 28 days, with the lesions consisting of abundant smooth muscle cells in proteoglycan/collagen matrix and apparent full endothelial healing. In arterial segments from the animals treated with COMPOUND I, the Intima is well healed, characterized by a compact neointima consisting of smooth muscle cells and endothelium fully covering the lumen surface both over stent struts and between struts.

For test [5] the following is noted: in conjunction with COMPOUND I.
Excerpt: Data points just spanning the IC50 of the agents alone or in combination are entered into the CalcuSyn program (CalcuSyn, Biosoft, Cambridge UK).
[6] abbreviates: 30 mg/kg orally once daily, 28 days after stenting.

Sequence of c-Met (P08581 25-1390): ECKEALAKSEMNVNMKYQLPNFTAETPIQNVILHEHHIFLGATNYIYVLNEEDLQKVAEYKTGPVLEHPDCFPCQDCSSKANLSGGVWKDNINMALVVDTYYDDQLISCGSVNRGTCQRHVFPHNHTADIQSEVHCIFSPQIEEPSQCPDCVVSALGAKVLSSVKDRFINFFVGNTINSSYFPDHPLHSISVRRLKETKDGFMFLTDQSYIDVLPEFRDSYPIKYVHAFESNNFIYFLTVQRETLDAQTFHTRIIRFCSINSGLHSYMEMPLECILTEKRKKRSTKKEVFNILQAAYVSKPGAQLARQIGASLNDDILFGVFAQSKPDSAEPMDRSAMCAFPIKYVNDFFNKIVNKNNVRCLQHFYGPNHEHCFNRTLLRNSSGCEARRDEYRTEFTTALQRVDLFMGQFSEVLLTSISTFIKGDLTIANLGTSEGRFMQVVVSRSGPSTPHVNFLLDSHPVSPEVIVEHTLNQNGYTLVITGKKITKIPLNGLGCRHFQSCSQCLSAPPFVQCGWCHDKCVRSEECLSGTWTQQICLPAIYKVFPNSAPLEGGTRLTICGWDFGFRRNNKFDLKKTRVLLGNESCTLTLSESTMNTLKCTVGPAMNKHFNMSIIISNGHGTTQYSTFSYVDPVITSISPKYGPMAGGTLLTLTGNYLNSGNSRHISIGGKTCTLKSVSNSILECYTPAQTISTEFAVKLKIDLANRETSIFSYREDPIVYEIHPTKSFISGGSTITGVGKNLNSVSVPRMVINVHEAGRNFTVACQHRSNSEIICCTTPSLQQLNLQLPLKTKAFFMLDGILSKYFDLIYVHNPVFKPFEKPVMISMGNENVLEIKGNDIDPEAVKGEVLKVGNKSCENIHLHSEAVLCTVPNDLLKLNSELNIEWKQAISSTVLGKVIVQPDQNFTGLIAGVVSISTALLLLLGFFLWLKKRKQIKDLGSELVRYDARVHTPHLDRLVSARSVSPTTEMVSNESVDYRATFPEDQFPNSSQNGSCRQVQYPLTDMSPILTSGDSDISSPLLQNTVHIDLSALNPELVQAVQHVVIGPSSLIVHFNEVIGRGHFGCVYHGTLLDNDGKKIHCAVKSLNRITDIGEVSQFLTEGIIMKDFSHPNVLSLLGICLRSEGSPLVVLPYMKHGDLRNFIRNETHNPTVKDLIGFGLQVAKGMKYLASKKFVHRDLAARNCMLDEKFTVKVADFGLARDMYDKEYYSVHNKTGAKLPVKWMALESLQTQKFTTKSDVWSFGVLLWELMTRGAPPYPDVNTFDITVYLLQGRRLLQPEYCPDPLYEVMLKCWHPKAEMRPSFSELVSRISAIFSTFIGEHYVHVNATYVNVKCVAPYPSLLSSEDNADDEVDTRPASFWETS
Sequence of Jak-2 (O60674 whole entry, species assumed): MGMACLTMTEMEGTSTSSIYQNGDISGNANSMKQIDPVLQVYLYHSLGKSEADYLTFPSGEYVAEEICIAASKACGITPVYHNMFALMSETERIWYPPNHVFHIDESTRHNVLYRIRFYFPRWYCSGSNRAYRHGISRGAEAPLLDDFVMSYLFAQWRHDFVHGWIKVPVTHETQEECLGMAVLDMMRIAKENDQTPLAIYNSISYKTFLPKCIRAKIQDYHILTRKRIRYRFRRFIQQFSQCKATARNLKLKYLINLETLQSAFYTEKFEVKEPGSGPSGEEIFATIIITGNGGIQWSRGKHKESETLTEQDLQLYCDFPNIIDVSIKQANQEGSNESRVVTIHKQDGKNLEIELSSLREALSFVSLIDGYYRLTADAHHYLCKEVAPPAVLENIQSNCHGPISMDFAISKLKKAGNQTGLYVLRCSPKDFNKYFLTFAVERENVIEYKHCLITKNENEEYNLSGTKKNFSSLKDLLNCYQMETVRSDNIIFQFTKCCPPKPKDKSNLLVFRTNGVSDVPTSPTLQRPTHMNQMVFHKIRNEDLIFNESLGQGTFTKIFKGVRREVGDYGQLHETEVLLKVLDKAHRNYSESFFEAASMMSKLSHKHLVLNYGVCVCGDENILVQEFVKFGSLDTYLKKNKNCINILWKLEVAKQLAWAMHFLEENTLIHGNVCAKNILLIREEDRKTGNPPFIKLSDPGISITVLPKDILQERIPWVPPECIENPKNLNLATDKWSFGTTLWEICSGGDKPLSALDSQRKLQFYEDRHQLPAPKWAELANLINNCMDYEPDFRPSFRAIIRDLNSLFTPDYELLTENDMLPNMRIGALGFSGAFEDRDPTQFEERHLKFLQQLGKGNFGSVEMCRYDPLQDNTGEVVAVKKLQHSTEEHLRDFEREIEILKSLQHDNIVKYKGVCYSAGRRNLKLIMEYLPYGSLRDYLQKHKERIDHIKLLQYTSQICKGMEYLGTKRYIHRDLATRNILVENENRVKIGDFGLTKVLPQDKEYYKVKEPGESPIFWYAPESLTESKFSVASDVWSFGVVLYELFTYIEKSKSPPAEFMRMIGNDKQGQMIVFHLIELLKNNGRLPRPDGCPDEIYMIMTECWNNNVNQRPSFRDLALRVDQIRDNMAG
Sequence of Tek (Q02763 23-1124, species assumed): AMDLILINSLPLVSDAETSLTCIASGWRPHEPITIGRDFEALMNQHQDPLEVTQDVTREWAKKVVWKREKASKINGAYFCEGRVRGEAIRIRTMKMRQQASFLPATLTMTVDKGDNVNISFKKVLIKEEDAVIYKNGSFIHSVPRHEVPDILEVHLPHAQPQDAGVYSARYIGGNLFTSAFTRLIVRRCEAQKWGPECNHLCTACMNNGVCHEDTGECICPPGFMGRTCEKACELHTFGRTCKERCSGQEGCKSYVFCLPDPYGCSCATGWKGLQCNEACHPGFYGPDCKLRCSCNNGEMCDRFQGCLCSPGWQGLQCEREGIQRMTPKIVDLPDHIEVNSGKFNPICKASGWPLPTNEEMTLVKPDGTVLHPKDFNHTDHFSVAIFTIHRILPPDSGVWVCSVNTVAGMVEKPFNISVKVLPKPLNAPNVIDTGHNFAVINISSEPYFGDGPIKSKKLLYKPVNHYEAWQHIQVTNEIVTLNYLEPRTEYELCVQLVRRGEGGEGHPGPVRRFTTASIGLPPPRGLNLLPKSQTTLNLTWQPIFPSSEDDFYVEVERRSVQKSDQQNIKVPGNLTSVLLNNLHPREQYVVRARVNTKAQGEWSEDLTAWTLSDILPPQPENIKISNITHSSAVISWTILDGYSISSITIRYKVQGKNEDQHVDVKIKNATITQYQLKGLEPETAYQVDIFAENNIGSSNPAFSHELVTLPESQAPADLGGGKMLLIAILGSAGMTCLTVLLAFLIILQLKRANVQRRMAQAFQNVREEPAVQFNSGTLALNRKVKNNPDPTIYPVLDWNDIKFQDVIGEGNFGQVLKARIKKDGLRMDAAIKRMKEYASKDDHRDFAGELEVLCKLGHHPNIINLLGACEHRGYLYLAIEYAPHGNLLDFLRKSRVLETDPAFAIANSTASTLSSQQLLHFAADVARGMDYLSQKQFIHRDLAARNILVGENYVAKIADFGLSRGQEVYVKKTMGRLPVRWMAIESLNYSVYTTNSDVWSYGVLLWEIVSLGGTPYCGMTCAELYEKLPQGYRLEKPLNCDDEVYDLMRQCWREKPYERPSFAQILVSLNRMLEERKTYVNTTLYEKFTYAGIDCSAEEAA
Sequence of α-PDGF receptor (P16234 24-1089): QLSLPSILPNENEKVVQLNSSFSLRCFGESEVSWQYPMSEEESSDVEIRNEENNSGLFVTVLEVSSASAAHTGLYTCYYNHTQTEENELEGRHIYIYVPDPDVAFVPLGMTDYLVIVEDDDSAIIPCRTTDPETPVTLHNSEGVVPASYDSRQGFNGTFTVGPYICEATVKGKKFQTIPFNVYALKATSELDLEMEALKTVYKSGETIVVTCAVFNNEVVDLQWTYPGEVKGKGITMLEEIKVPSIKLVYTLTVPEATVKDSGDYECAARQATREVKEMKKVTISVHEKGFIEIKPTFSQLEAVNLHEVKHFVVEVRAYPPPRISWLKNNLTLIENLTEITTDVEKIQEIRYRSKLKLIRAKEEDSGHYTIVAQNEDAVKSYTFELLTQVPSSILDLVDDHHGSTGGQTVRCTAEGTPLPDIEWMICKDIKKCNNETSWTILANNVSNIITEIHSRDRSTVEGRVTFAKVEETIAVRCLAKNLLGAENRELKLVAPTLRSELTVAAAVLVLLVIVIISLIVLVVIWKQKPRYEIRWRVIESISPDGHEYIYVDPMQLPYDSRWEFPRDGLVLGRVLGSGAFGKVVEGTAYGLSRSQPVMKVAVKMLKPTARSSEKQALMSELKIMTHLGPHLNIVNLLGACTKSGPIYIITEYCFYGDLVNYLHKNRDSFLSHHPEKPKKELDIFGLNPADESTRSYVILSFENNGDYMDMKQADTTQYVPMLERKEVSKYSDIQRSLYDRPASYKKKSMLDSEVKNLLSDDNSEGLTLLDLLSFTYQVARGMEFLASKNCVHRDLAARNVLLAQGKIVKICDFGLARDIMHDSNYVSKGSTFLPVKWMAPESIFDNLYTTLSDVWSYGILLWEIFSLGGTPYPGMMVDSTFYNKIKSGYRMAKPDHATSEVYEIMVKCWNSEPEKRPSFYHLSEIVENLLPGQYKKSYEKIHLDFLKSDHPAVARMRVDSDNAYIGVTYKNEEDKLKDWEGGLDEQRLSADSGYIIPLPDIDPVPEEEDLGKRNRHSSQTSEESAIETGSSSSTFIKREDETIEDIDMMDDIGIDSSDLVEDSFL

Consider `Cc1ccc(NC(=O)c2ccc(CN3CCN(C)CC3)cc2)cc1Nc1nccc(-c2cccnc2)n1` [COMPOUND I, N-{5-[4-(4-methyl-piperazino-methyl)-benzoylamido]-2-methylphenyl}-4-(3-pyridyl)-2-pyrimidine-amine], for which, on Jak-2, the “inhibition of Jak-2” value is “no inhibition”. For the same compound, the “inhibition of kinase activity of the receptor for stem cell factor” value in [1] is on record as “potently inhibit”. Moreover, at Flt-1, the “inhibition of kinase activity of Flt-1” value was “not”. Moreover, the “percent inhibition of neointimal lesion formation” value in [2] (0.5 mg/kg oral daily) amounted to 17%. For the same compound, in test [2] (2.0 mg/kg oral daily), the “percent inhibition of neointimal lesion formation” value stood at 37%. In addition, the “neointimal lesion formation at 28 days following balloon injury” value in test [2] (oral daily, dose of from 0.2 to 3.5 mg, preferably 0.5 to 2.0 mg/kg) is given as “significantly reduce”. In test [3], the “inhibition of PDGF receptor tyrosine kinase” value is given as “selectively inhibits”. For the same compound, the “inhibition of kinase activity of Tek” value on Tek is “not”. For the same compound, the “inhibition of c-Met” value on c-Met is on record as “no inhibition”. Further, the “inhibition of kinase activity of α-PDGF receptor” value at α-PDGF receptor was “potently inhibit”. At Flt-3, the “inhibition of kinase activity of Flt-3” value is “not”. On β-PDGF receptor, the “inhibition of kinase activity of β-PDGF receptor” value was “potently inhibit”. Also, the “inhibition of kinase activity of Kdr” value at Kdr is given as “not”. Further, in test [4] (setting [6]), the “EEL area compared with control” value is on record as “did not result in differences” and the “intima healing in arterial segments” value was “well healed”. Also, in test [4] (30 mg/kg orally once daily, 28 days after stenting, vs placebo, P<0.0001), the “reduction in average neointimal thickness” value was determined as 29%. Besides, in test [4] (30 mg/kg orally once daily, 28 days after stenting, vs placebo, P<0.0002), the “reduction in percent arterial stenosis” value was 17%. In [4] (30 mg/kg orally once daily, 28 days after stenting, vs placebo, P<0.04), the “reduction in neointimal area” value was 17%. For the same compound, in test [4] (rabbit iliac arteries, in-stent), the fibrin deposit entry was “reduced”.

For `CC(=O)O[C@H]1C(=O)[C@@]2(C)[C@H]([C@H](OC(=O)c3ccccc3)[C@]3(O)C[C@H](OC(=O)[C@H](O)[C@@H](NC(=O)c4ccccc4)c4ccccc4)C(C)=C1C3(C)C)[C@]1(OC(C)=O)CO[C@@H]1C[C@@H]2O` [Taxol, taxol], the “interaction with COMPOUND I in combination” value (from here on “interaction with COMPOUND I”) in [5] was “Slight synergism or synergy”.

With `CC[C@]1(O)C[C@@H]2CN(CCc3c([nH]c4ccccc34)[C@@](C(=O)OC)(c3cc4c(cc3OC)N(C)[C@H]3[C@@](O)(C(=O)OC)[C@H](OC(C)=O)[C@]5(CC)C=CCN6CC[C@]43[C@@H]65)C2)C1` [Vinblastine, vinblastine], the “interaction with COMPOUND I” value in test [5] was “Slight synergism or synergy”.

Regarding `COc1cccc2c1C(=O)c1c(O)c3c(c(O)c1C2=O)C[C@@](O)(C(=O)CO)C[C@@H]3O[C@H]1C[C@H](N)[C@H](O)[C@H](C)O1` [doxorubicin], the “interaction with COMPOUND I” value in test [5] is “Slight synergism or synergy”.
